pIC50: −log10 of the molar value. Like-named read-outs stand apart in the source and are kept apart here. A value given as a limit tells only on which side of the number the result lay.

Assay [1] has as its system H3K27Me3 methylation in Karpas-422 cells. The experiment in a line: H3K27Me3 cell method, inhibition of H3K27Me3 methylation (Test Example 2). The format is cell-based, human. Particulars: Homo sapiens, KARPAS-422, 72 h; for pIC50: Karpas-422 cells, 3 days incubation, HTRF signal, read-out: Test Example 2 H3K27Me3 inhibition (Karpas-422) IC50. The procedure: Karpas-422 (Nanjing Kebai, CBP60629) cells were seeded in a 96-well plate (Corning, 3894) at 15,000 cells per well in culture medium (80% 1640 (Hyclone, SH30809.01)+20% FBS (Corning, 35-081-CV)), and then added with different concentrations of compounds for treatment. The cell growth group without adding compounds is used as a positive control (maximum signal control), and the medium is used as a negative control (minimum signal control), while ensuring that in each reaction well, the final concentration of DMSO was 0.2%. Compounds and cells were incubated for 3 days in a cell culture incubator (37° C., 5% CO2). The 96-well plate was taken out from the cell culture incubator and equilibrated to room temperature, and 25 ul of cell suspension was taken out into a 384-well plate. The CCK8 (Beiyuntian, C0040) detection reagent was added, incubated at 37° C. for 1 h, and […] was detected. The rest of the cells followed the procedure of the kit EPIgeneous H3K27Me3 cellular kit (Cisbio, 62KC3PAE) to carry out experiment, read HTRF signal with BMG PHERAStar. […] By GraphPad Prism 6 with log(inhibitor)vs.response-Variable slope model simulation, the IC50 of the compound on cell activity inhibition was calculated. The fitting equation is: Y=Bottom+(Top−Bottom)/(1+10^((Log IC50−X)*HillSlope)), wherein Y represents the inhibition rate, and X represents the known concentration of the compound after Log.

In assay [2] the target is T1, EZH2/SUZ/EED (Homo sapiens, UniProt O75530+Q15022+Q15910).
T1 construct: purchased BPS 51003
The experiment in a line: Inhibitory effect on EZH2 by the MTase-Glo method (Test Example 1). Particulars: EZH2/SUZ/EED 6.25 nM, H3 peptide 10 μM, SAM 3 μM, 30° C. 3 h, read-out: Test Example 1 WT EZH2 IC50. The format is biochemical. The procedure:
(§1) The compound was dissolved in DMSO, and the compound was serially diluted using ECHO665 and transferred to a 384-well reaction plate (Corning, 3824). A sample containing only DMSO was added as a positive control (maximum signal control) and a negative control (minimum signal control), while ensuring that the final DMSO content in each reaction well was 0.5%. The protein was configured in reaction buffer (50 mM Bicine, 0.01% Triton X-100, 1 mM DTT, 0.01% BSA, pH 7.6), such that the final reaction concentrations of EZH2/SUZ/EED (BPS, 51003) protein solution and EZH1/SUZ/EED (BPS, 51006) were 6.25 nM and 25 nM, respectively. The negative control (minimum signal control) used an equal amount of buffer instead of protein solution. The prepared protein solution was added to the 384-well reaction plate and pre-incubated at room temperature for 15 minutes. The mixture of the substrate H3 peptide fragment (custom-synthesized by GenScript, biotinylated Histone H3(21-44) peptide ([…]-GG-K(Biotin)-OH)) prepared in the reaction buffer and SAM (Promega, V7601) was added into the 384-well plate, such that the final reaction concentration of H3 peptide fragment was 10 μM, and the final concentration of SAM was 3 μM. The mixture was centrifuged at 1000 rpm for 1 min. The 384-well reaction plate was placed in a constant temperature shaker and incubate at 30° C. for 3 h at a speed of 300 rpm. Then the detection reagent was added according to the experimental process of the kit MTase-Glo (Promega, V7601) and incubated.
(§2) After incubation, read with BMG PHERAStar. The luminescence signals obtained by positive control (maximum signal control) and negative control (minimum signal control) were normalized to obtain the inhibition rate of different concentrations of compounds. Then, the IC50 of the compound on the enzyme activity inhibition was calculated by GraphPad Prism 6 with log(inhibitor) vs. response-Variable slope model fitting. The fitting equation is: Y=Bottom+(Top−Bottom)/(1+10^((Log IC50−X)*HillSlope)), wherein Y represents the known percentage remaining enzyme activity, and X represents the known activity after Log compound concentration.

The target in assay [3] is T2, EZH1/SUZ/EED (Homo sapiens, UniProt O75530+Q15022+Q92800).
T2 construct: purchased BPS 51006
The experiment in a line: Inhibitory effect on EZH1 by the MTase-Glo method (Test Example 1). The note with it: EZH1/SUZ/EED 25 nM, H3 peptide 10 μM, SAM 3 μM, 30° C. 3 h, read-out: Test Example 1 WT EZH1 IC50. It counts as biochemical. As to the method: as §1, §2

T1 sequence (Q15910 2-746 limits assumed): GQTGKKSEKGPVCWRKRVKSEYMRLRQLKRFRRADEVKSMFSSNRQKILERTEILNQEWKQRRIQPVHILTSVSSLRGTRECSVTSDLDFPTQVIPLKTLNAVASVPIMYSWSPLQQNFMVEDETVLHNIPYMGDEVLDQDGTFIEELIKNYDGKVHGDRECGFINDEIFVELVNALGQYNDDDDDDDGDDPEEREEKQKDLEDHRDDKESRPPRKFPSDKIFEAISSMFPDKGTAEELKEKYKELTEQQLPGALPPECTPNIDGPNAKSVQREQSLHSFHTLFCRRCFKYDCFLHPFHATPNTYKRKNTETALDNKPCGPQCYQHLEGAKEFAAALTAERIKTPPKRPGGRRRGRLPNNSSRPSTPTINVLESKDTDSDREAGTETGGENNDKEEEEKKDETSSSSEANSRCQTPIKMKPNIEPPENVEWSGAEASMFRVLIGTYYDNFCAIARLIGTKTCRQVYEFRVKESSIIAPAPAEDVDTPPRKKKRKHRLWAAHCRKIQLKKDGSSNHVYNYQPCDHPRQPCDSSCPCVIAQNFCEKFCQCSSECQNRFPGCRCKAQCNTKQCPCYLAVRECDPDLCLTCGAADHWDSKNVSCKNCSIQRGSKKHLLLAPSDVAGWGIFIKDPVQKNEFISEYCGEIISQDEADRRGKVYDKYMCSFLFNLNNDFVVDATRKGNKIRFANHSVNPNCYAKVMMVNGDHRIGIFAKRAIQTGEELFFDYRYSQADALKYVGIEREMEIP
T1 sequence (Q15022 2-739 partner limits assumed): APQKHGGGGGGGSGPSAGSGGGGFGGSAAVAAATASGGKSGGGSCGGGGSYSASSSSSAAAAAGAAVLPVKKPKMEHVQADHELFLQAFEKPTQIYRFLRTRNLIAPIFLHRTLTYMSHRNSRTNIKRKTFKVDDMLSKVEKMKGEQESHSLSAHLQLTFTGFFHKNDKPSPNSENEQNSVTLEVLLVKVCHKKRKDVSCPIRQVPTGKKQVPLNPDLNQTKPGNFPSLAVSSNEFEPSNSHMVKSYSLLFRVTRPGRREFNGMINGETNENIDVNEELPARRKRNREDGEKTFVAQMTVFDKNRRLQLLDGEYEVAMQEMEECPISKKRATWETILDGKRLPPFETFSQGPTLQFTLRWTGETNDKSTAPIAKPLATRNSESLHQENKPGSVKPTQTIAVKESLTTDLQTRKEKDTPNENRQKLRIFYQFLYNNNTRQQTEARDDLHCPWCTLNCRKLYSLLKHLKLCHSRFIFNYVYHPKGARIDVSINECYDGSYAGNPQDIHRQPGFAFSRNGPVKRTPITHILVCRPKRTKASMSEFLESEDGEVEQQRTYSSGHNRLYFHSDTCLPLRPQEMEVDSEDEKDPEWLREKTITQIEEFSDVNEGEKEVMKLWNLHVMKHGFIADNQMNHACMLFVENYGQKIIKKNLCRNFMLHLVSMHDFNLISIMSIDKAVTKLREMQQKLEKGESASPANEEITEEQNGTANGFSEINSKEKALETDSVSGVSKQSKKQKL
T1 sequence (O75530 2-441 partner limits assumed): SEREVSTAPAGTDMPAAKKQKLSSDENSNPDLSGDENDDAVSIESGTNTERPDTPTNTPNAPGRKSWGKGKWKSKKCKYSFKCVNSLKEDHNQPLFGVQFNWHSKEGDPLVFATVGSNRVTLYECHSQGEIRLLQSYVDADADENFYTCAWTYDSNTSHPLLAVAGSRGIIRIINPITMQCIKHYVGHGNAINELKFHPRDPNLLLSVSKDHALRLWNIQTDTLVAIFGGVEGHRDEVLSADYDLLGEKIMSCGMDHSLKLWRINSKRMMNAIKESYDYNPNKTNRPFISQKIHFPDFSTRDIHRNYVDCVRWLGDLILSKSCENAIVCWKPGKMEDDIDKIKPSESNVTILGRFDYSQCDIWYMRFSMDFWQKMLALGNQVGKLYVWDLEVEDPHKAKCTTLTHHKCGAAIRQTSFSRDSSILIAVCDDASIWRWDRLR
T2 sequence (Q92800 2-747 limits assumed): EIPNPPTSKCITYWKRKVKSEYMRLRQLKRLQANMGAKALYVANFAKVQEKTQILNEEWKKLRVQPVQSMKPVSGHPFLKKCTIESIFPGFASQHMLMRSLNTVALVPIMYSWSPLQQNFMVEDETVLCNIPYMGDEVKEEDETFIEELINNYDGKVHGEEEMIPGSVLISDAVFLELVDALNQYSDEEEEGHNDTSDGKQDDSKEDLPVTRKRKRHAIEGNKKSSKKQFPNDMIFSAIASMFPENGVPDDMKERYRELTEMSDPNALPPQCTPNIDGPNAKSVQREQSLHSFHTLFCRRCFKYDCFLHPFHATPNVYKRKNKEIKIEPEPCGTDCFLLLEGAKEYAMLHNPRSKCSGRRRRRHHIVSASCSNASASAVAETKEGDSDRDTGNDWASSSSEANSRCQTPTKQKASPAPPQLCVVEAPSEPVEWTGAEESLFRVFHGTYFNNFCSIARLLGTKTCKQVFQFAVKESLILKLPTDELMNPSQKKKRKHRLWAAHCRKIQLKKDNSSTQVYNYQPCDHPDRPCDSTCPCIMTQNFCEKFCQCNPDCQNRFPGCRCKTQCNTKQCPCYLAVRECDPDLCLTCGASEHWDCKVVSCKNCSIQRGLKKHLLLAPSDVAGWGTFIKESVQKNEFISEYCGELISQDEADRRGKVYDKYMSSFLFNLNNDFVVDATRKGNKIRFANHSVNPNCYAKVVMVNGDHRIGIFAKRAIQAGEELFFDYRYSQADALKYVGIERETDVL
T2 sequence (Q15022 2-739 partner limits assumed): as the sequence (Q15022 2-739 partner limits assumed) above
T2 sequence (O75530 2-441 partner limits assumed): as the sequence (O75530 2-441 partner limits assumed) above

The term pIC50 denotes the IC50 on a negative log10 scale, so that one unit is a factor of ten. In the case of `CSc1cc(C)[nH]c(=O)c1CNC(=O)c1cc(Cl)c2c(c1C)O[C@H]([C@H]1CC[C@H](N3CC(OC4CC4)C3)CC1)CO2` [Compound 12], the pIC50 was 8.03 in assay [1] and 8.59 in assay [2]. As usually defined, the IC50 is the concentration that inhibits the measured activity by half. `CON(C)C1CCC(C2COc3c(Cl)cc(C(=O)NCc4c(C)cc(C)[nH]c4=O)c(C)c3O2)CC1` (single isomer, unassigned) [Compound 78]: the IC50 in assay [1] (read-out: Test Example 2 H3K27Me3 inhibition (Karpas-422) IC50(nM)) was determined as 370 nM. Further, in assay [2], the pIC50 is 7.92. As to `COC1CN([C@H]2CC[C@H]([C@H]3COc4c(Cl)cc(C(=O)NCc5c(SC)cc(C)[nH]c5=O)c(Cl)c4O3)CC2)C1` [Compound 150], the pIC50 in assay [3] is 7.65; in assay [2], 7.94. On the same counts, the results for `COc1c(Cl)c2c(c(C)c1C(=O)NCc1c(C)cc(C)[nH]c1=O)O[C@@H]([C@H]1CC[C@@H](N(C)C)CC1)CO2` [Compound 134] are 6.90 and 8.18. On the same counts, the results for `CO[C@@H]1CCN([C@H]2CC[C@@H]([C@H]3COc4c(Cl)cc(C(=O)NCc5c(SC)cc(C)[nH]c5=O)c(C)c4O3)CC2)C1` [Compound 41] are 8.41 and 8.37. On to `CSc1cc(C)[nH]c(=O)c1CNC(=O)c1cc(Cl)c2c(c1C)O[C@H](C1CCN(CC3CC3)CC1)CO2` [Compound 31], for which the pIC50 is 6.31 in assay [3] and 7.18 in assay [2]. The corresponding values for `Cc1cc(C)c(CNC(=O)c2cc(Cl)c3c(c2C)OC(C2CCC(N4CC(F)C4)CC2)CO3)c(=O)[nH]1` (single isomer, unassigned) [Compound 71] are 6.25 and 7.38. On the same counts, the results for `COC1CN([C@H]2CC[C@H]([C@H]3COc4c(Cl)cc(C(=O)NCc5c([S+](C)[O-])cc(C)[nH]c5=O)c(C)c4O3)CC2)C1` (stereo partly drawn) [Compound 140] are 5.05 and 6.05. On the same counts, the results for `CON=C1CCC([C@H]2COc3c(Cl)cc(C(=O)NCc4c(C)cc(C)[nH]c4=O)c(C)c3O2)CC1` (stereo partly drawn) [Compound 93] are 6.88 and 8.22. For `CO[C@H]1CCN([C@H]2CC[C@@H]([C@H]3COc4c(Cl)cc(C(=O)NCc5c(SC)cc(C)[nH]c5=O)c(C)c4O3)CC2)C1` [Compound 39], the pIC50 was 8.14 in assay [3] and 8.40 in assay [2].

As for `Cc1cc(C)c(CNC(=O)c2cc(Cl)c3c(c2C)O[C@H]([C@H]2CC[C@@H](N4CC5COCC5C4)CC2)CO3)c(=O)[nH]1` (stereo partly drawn) [Compound 74], the pIC50 in assay [3] was under 5.00; in assay [2], 6.00. For `Cc1cc(C)c(CNC(=O)c2cc(Cl)c3c(c2C)O[C@@H](C2CCN(CC4COC4)CC2)CO3)c(=O)[nH]1` [Compound 86], the figures for the pIC50 in assay [1] and in assay [2] were under 6.00 and 7.70, respectively. As to `CO[C@H]1CCN([C@H]2CC[C@H]([C@H]3COc4c(Cl)cc(C(=O)NCc5c(SC)cc(C)[nH]c5=O)c(C)c4O3)CC2)C1` [Compound 40], the pIC50 in assay [1] was 8.08.

On to `Cc1cc(C)c(CNC(=O)c2cc(Cl)c3c(c2C)OC(C2CCC(NC4CC(F)(F)C4)CC2)CO3)c(=O)[nH]1` (single isomer, unassigned) [Compound 66], for which the pIC50 is 6.16 in assay [3] and 7.61 in assay [2]. On the same counts, the results for `COC1(C(F)(F)F)CN(C2CCC(C3COc4c(Cl)cc(C(=O)NCc5c(C)cc(C)[nH]c5=O)c(C)c4O3)CC2)C1` (single isomer, unassigned) [Compound 68] are under 5.00 and 7.23. For `COc1cc(C)[nH]c(=O)c1CNC(=O)c1cc(Cl)c2c(c1Cl)O[C@@H]([C@H]1CC[C@@H](N3CC(OC)C3)CC1)CO2` [Compound 151], in assay [1], the pIC50 was 7.88. On to `COc1c(Cl)c2c(c(C)c1C(=O)NCc1c(C)cc(C)[nH]c1=O)O[C@@H]([C@H]1CC[C@H](N(C)C)CC1)CO2` [Compound 135], for which the pIC50 was 5.25 in assay [3] and 7.10 in assay [2].

With `CSc1cc(C)[nH]c(=O)c1CN(C)C(=O)c1cc(Cl)c2c(c1C)O[C@@H]([C@H]1CC[C@@H](N(C)C)CC1)CO2` [Compound 128], the pIC50 is 7.36 in assay [1] and 8.02 in assay [2]. Consider `COC1CN([C@H]2CC[C@@H]([C@H]3COc4c(Cl)cc(C(=O)NCc5c([S+](C)[O-])cc(C)[nH]c5=O)c(C)c4O3)CC2)C1` (stereo partly drawn) [Compound 139], for which the pIC50 in assay [3] is 5.07; in assay [2] it was 5.90. In the case of `[2H]C([2H])([2H])OC1CN([C@H]2CC[C@H]([C@H]3COc4c(Cl)cc(C(=O)NCc5c(SC)cc(C)[nH]c5=O)c(C)c4O3)CC2)C1` [Compound 21], the pIC50 in assay [3] is 7.72; in assay [2] it was 8.19. On the same counts, the results for `Cc1cc(C)c(CNC(=O)c2cc(Cl)c3c(c2C)OC(C2CCC(NC4CC(F)(F)C4)CC2)CO3)c(=O)[nH]1` (single isomer, unassigned) [Compound 67] are 6.44 and 7.32. Turning to `Cc1cc(C)c(CNC(=O)c2cc(Cl)c3c(c2C)OC(C2CCC(N4CC(C(C)(C)O)C4)CC2)CO3)c(=O)[nH]1` (stereo not drawn) [Compound 85], the pIC50 in assay [1] was 7.02; in assay [2] it was 7.98.

Turning to `Cc1cc(C)c(CNC(=O)c2cc(Cl)c3c(c2C)OC(C2CCC(NC4CC(F)C4)CC2)CO3)c(=O)[nH]1` (single isomer, unassigned) [Compound 65], the pIC50 in assay [3] was 6.19; in assay [2], 7.53. The corresponding values for `COC1C[N+]([O-])([C@H]2CC[C@@H]([C@H]3COc4c(Cl)cc(C(=O)NCc5c([S+](C)[O-])cc(C)n(O)c5=O)c(C)c4O3)CC2)C1` (stereo partly drawn) [Compound 136] are 6.72 and 7.37. On the same counts, the results for `COc1cc(C)[nH]c(=O)c1CNC(=O)c1cc(Cl)c2c(c1C)O[C@@H]([C@H]1CC[C@H](N3CC4COCC4C3)CC1)CO2` (stereo partly drawn) [Compound 96] are 6.78 and 8.15.

Consider `Cc1cc(C)c(CNC(=O)c2c(C)c3c(c(Cl)c2F)OC[C@H]([C@H]2CC[C@H](N(C)C)CC2)O3)c(=O)[nH]1` [Compound 132], for which the pIC50 in assay [3] is 6.14; in assay [2] it was 8.14. As for `COC1CN([C@H]2CC[C@H]([C@H]3COc4c(Cl)cc(C(=O)NCc5c(SC)cc(C)[nH]c5=O)c(C)c4O3)CC2)C1` [Compound 9], the pIC50 in assay [1] is 7.85; in assay [2], 8.51. For the molecule `COc1cc(C)[nH]c(=O)c1CNC(=O)c1cc(Cl)c2c(c1C)O[C@@H]([C@H]1CC[C@H](N3CC(OC)C3)CC1)CO2` [Compound 98], the pIC50 in assay [1] was 6.34; in assay [2], 8.24.

`COc1cc(C)[nH]c(=O)c1CNC(=O)c1cc(Cl)c2c(c1C)O[C@@H]([C@H]1CC[C@@H](N3CC4C(C3)C4OC)CC1)CO2` (stereo partly drawn) [Compound 115]: the values for the pIC50 in assay [3] and in assay [2] were 7.13 and 8.31, respectively. For the molecule `COc1cc(C)[nH]c(=O)c1CNC(=O)c1cc(Cl)c2c(c1C)O[C@@H]([C@H]1CC[C@@H](N3CC4CC4C3)CC1)CO2` (stereo partly drawn) [Compound 113], the pIC50 in assay [3] was 7.04; in assay [2], 8.03. The corresponding values for `Cc1cc(C)c(CNC(=O)c2cc(Cl)c3c(c2C)O[C@@H](C2CCN(CC4CC4)CC2)CO3)c(=O)[nH]1` [Compound 90] are 6.02 and 7.73.

(Values after patent US20260184697A1, “EZH1/2 INHIBITOR, PREPARATION THEREOF, AND USE THEREOF IN ANTI-TUMOR THERAPY” (JIANGSU TASLY DIYI PHARMACEUTICAL CO., LTD., priority 2022, published 2026).)
